IC50 and IC90 data for 39 molecules are collected here from ChEMBL document CHEMBL4483862, “Open-source discovery of chemical leads for next-generation chemoprotective antimalarials” (2018).

The subject of this experiment is Plasmodium berghei. Put plainly: Luciferase/luciferin-expressing antifolate-resistant parasites were used to infect a culture of HepG2 cells that were pre-incubated with compounds. Infected hepatocytes emit light due to the luciferase reaction. Assay results are presented as the percent inhibition of light emission compared to control. […]. Type of experiment: functional. The note with it: sporozoite; for IC90: read-out: LUCIFERASE INFECTION ASSAY - IC90.

Where [1] appears, read: read-out: LUCIFERASE INFECTION ASSAY - IC50.

What is called IC50 is the midpoint of a concentration-inhibition curve. Broadly, the IC90 is the point of the concentration-response curve where the effect stands at 90%.

Take `CSc1nncn1-c1ccccc1`: the IC90 came to 15.4 µM. For the same molecule, for the setting “PBLUC_HILL_SLOPE 3.17, PBLUC_R_SQUARED 0.315, read-out: LUCIFERASE INFECTION ASSAY - IC50”, the IC50 worked out at 7.69 µM.

With `O=C(CNc1ccc(Oc2ccc(Br)cc2)cc1)NC1CC1`, the IC90 is over 10 µM. Moreover, the IC50 under setting [1] is over 10 µM.

`Fc1ccc(-c2cnc3cnc(-c4cccs4)cn23)cc1Cl`: the IC90 was over 10 µM. Besides, the IC50 (HEPG2TOX_HILL_SLOPE 0.129, HEPG2TOX_R_SQUARED 0.552, PBLUC_HILL_SLOPE 2.11, PBLUC_R_SQUARED 0.543, read-out: LUCIFERASE INFECTION ASSAY - IC50) came to 4.6 µM.

Turning to `O=C(Nc1ccc(SC(F)(F)F)cc1)Nc1ccc(SC(F)(F)F)cc1`, the IC90 stood at 0.867 µM. The IC50 (HEPG2TOX_HILL_SLOPE 1.44, HEPG2TOX_R_SQUARED 0.886, PBLUC_HILL_SLOPE 1.62, PBLUC_R_SQUARED 0.668, read-out: LUCIFERASE INFECTION ASSAY - IC50) was determined as 0.223 µM.

In the case of `CC1(C)C=Cc2cc(-c3noc(-c4ccccc4)n3)ccc2O1`, the IC90 came to 0.379 µM.

In the case of `Cc1ccc(NC(=O)Nc2cnn(-c3ccc([N+](=O)[O-])cc3)c2C(F)(F)F)cc1F`, the IC90 amounted to 3.46 µM. Also, the IC50 (FFLUC_HILL_SLOPE 2.79, FFLUC_R_SQUARED 0.315, HEPG2TOX_HILL_SLOPE 0.0932, HEPG2TOX_R_SQUARED 0.068, PBLUC_HILL_SLOPE 11.4, PBLUC_R_SQUARED 0.0999, read-out: LUCIFERASE INFECTION ASSAY - IC50) is 2.85 µM.

Turning to `Cn1c(N)c(C(=O)COC(=O)C2(c3ccccc3F)CCCC2)c(=O)n(C)c1=O`, the IC90 is over 10 µM. Besides, under setting [1], the IC50 is over 10 µM.

For the molecule `CN(C)c1ccc(C(c2ccc(N(C)C)cc2)c2ccc(Cl)c(Cl)c2)cc1`, the IC90 is over 8.26 µM. For the same molecule, the IC50 (PBLUC_HILL_SLOPE 0.805, PBLUC_R_SQUARED 0.379, read-out: LUCIFERASE INFECTION ASSAY - IC50) stood at 3.91 µM.

On to `CN(C1CCCCCC1)S(=O)(=O)c1ccc(-n2ncc(Cl)c(Cl)c2=O)cc1`, for which the IC90 came to 5.25 µM. Besides, under setting [1], the IC50 amounted to 3.55 µM.

On to `O=C(CN1CCNCC1)N1CCOCC1`, for which the IC90 is over 15.5 µM. Besides, the IC50 under setting [1] is over 15.5 µM.

Turning to `Cc1cccc(Cn2nc(C(C)(C)C)cc2-c2nnc(SCc3ccccc3)n2C2CCCCC2)c1`, the IC90 is over 6.6 µM. Besides, under setting [1], the IC50 is over 6.6 µM.

Regarding `CCCNC(=O)C1(C)CCN(CCCC(=O)c2ccc(C)c(C)c2)C1` (configuration not stated), the IC90 is over 9.58 µM. Moreover, under setting [1], the IC50 was over 9.58 µM.

On to `CN1C/C(=C/c2csnn2)C(=O)/C(=C/c2csnn2)C1`, for which the IC90 amounted to 4.3 µM. Besides, under “HEPG2TOX_HILL_SLOPE 8.98, HEPG2TOX_R_SQUARED 0.932, PBLUC_HILL_SLOPE 14.4, PBLUC_R_SQUARED 0.582, read-out: LUCIFERASE INFECTION ASSAY - IC50”, the IC50 is 3.69 µM.

As for `COc1ccc(-c2cnc3cnc(-c4ccc(CNc5ccccc5)cc4)cn23)cn1`, the IC90 amounted to 8.05 µM. Besides, under setting [1], the IC50 is 2.72 µM.

`Clc1ccccc1-c1cn2c(-c3ccncc3)cnc2cn1`: the IC90 is over 10.8 µM. Besides, the IC50 (PBLUC_HILL_SLOPE 5.69, PBLUC_R_SQUARED 0.296, read-out: LUCIFERASE INFECTION ASSAY - IC50) worked out at 10.2 µM.

As for `CN1CCN(C(=O)c2cccc(-c3cnc4cnc(-c5cccc(Cl)c5)cn34)c2)CC1`, the IC90 is over 7.64 µM. Also, the IC50 (PBLUC_HILL_SLOPE 2.84, PBLUC_R_SQUARED 0.435, read-out: LUCIFERASE INFECTION ASSAY - IC50) worked out at 4.45 µM.

As for `O=C(CNc1cc(C(F)(F)F)ccc1Oc1ccc(Br)cc1)NCCC1=CCCCC1`, the IC90 was over 10 µM. Moreover, the IC50 (FFLUC_HILL_SLOPE 3.47, FFLUC_R_SQUARED 0.173, PBLUC_HILL_SLOPE 15.8, PBLUC_R_SQUARED 0.057, read-out: LUCIFERASE INFECTION ASSAY - IC50) stood at 9.79 µM.

Take `COc1cc(-c2nc3ccc(NC(=O)c4ccco4)cn3n2)cc(OC)c1OC`: the IC90 is over 10 µM. For the same molecule, for the setting “PBLUC_HILL_SLOPE 0.261, PBLUC_R_SQUARED 0.0451, read-out: LUCIFERASE INFECTION ASSAY - IC50”, the IC50 is over 10 µM.

Turning to `CCOC(=O)c1sc(N)c(C#N)c1CSc1nnc(-c2ccc(OC)c(OC)c2)o1`, the IC90 came to 9.92 µM. For the same molecule, the 50% inhibitory concentration (IC50) (HEPG2TOX_HILL_SLOPE 2.07, 4.99, HEPG2TOX_R_SQUARED 0.833, 0.121, PBLUC_HILL_SLOPE 3.67, 1.56, PBLUC_R_SQUARED 0.0908, 0.540, read-out: LUCIFERASE INFECTION ASSAY - IC50) was determined as 4.06 µM.

Take `Cn1c(-c2ccccc2)nc2cnc(Nc3cccc(OC(F)(F)F)c3)cc21`: the IC90 was determined as 2.38 µM. Further, the IC50 (HEPG2TOX_HILL_SLOPE 2.98, HEPG2TOX_R_SQUARED 0.826, PBLUC_HILL_SLOPE 1.94, PBLUC_R_SQUARED 0.665, read-out: LUCIFERASE INFECTION ASSAY - IC50) was determined as 0.764 µM.

Take `COC(=O)c1c(C)[nH]c(C(=O)Nc2nc(-c3cc(C)sc3C)cs2)c1C`: the IC90 is over 10 µM. Besides, the IC50 (HEPG2TOX_HILL_SLOPE 5.44, HEPG2TOX_R_SQUARED 0.234, read-out: LUCIFERASE INFECTION ASSAY - IC50) was over 10 µM.

For the molecule `CCCCNC(=O)c1c(NC(=O)COc2ccccc2)nc2ccc(C)cn12`, the IC90 stood at 8.47 µM. The IC50 (FFLUC_HILL_SLOPE 32.7, FFLUC_R_SQUARED 0.34, HEPG2TOX_HILL_SLOPE 7.48, HEPG2TOX_R_SQUARED 0.362, PBLUC_HILL_SLOPE 14.2, PBLUC_R_SQUARED 0.182, read-out: LUCIFERASE INFECTION ASSAY - IC50) is 7.25 µM.

Take `CCOC(=O)CSCc1noc(COc2ccc(Cl)cc2Cl)n1`: the IC90 amounted to 0.26 µM. In addition, the IC50 (PBLUC_HILL_SLOPE 0.923, PBLUC_R_SQUARED 0.877, read-out: LUCIFERASE INFECTION ASSAY - IC50) was found to be 0.0241 µM.

As to `COc1cc(OC)cc(-c2cn3c(-c4ccc5ncccc5c4)cnc3cn2)c1`, the IC90 stood at 6.15 µM. For the same molecule, the IC50 (HEPG2TOX_HILL_SLOPE 2.4, HEPG2TOX_R_SQUARED 0.938, PBLUC_HILL_SLOPE 4.1, PBLUC_R_SQUARED 0.34, read-out: LUCIFERASE INFECTION ASSAY - IC50) turned out to be 3.6 µM.

`CCOc1ccc2nc(NC(=O)C3Cc4ccccc4CN3S(=O)(=O)c3ccc(C)cc3)sc2c1` (configuration not stated): the IC90 is over 10 µM. The IC50 under setting [1] was over 10 µM.

For the molecule `Clc1ccc2c(c1)nnc1nnnn12`, the IC90 is 1.91 µM. The IC50 under setting [1] turned out to be 1.66 µM.

With `O=C(Nc1cc(C(F)(F)F)ccc1Cl)C(Sc1nnc(Cc2cccs2)n1CCc1ccccc1)c1ccccc1` (configuration not stated), the IC90 is over 10 µM. Besides, the IC50 under setting [1] amounted to 5.35 µM.

Consider `Cn1cnc([N+](=O)[O-])c1Sc1cccs1`, for which the IC90 was over 13.7 µM. In addition, the IC50 (FFLUC_HILL_SLOPE 1.45, FFLUC_R_SQUARED 0.647, PBLUC_HILL_SLOPE 13.1, PBLUC_R_SQUARED 0.224, read-out: LUCIFERASE INFECTION ASSAY - IC50) was over 13.7 µM.

Take `O=C(NN=c1nc[nH]c2ccccc12)c1c(O)c(O)cc2ccccc12`: the IC90 was 1.34 µM. The IC50 (HEPG2TOX_HILL_SLOPE 1.23, 1.37, HEPG2TOX_R_SQUARED 0.873, 0.334, PBLUC_HILL_SLOPE 12.1, 7.99, PBLUC_R_SQUARED 0.334, 0.684, read-out: LUCIFERASE INFECTION ASSAY - IC50) is 1.07 µM.

In the case of `Cn1c(-c2cncc(C#Cc3ccccc3)c2)n[nH]c1=S`, the IC90 was over 11.3 µM. Moreover, the IC50 under setting [1] was over 11.3 µM.

As for `C/C(=N\NC(=O)c1ccc(COc2c(Br)cc(C)cc2Br)cc1)c1ccc(O)cc1O`, the IC90 was 1.28 µM. Further, the IC50 under setting [1] is 1.12 µM.

On to `COc1ccc(-n2c(SCc3nc4ccccc4s3)nc3ccccc32)cc1`, for which the IC90 is over 10 µM. Also, the IC50 under setting [1] is over 10 µM.

Take `Cc1cc(C(=O)N(C)Cc2nc(=O)c3ccccc3[nH]2)c(C)n1-c1ccccc1F`: the IC90 is over 10 µM. Under “PBLUC_HILL_SLOPE 1.44, PBLUC_R_SQUARED 0.478, read-out: LUCIFERASE INFECTION ASSAY - IC50”, the IC50 is 6.97 µM.

In the case of `CC(C)(C)c1ccc(S(=O)(=O)Nc2ccc(O)c(Sc3nc4ccccc4s3)c2)cc1`, the IC90 was over 10 µM. In addition, the IC50 (HEPG2TOX_HILL_SLOPE 0.314, HEPG2TOX_R_SQUARED 0.616, read-out: LUCIFERASE INFECTION ASSAY - IC50) was over 10 µM.

In the case of `CN(Cc1ccc(N2CCCCC2)cc1)C(=O)c1cc(-c2cccnc2)nc2ccccc12`, the IC90 was over 10 µM. Also, the IC50 (HEPG2TOX_HILL_SLOPE 0.393, HEPG2TOX_R_SQUARED 0.924, PBLUC_HILL_SLOPE 2.39, PBLUC_R_SQUARED 0.338, read-out: LUCIFERASE INFECTION ASSAY - IC50) worked out at 4.33 µM.

Consider `COC(=O)c1ccc2c(=O)nc(CSc3nnc(-c4ccccc4)c(-c4ccccc4)n3)[nH]c2c1`, for which the IC90 is over 10 µM. Besides, the IC50 under setting [1] was over 10 µM.

Consider `CS(=O)(=O)c1ccc(CN2CCN3C(C(=O)Nc4cccc(C(F)(F)F)c4)=COC3=NC2=O)cc1`, for which the concentration for an effect of 90% (IC90) was over 10 µM. For the same molecule, under setting [1], the IC50 was over 10 µM.

Consider `CC(Sc1nnc(/C=C/c2ccc(F)cc2)[nH]1)C(=O)N(Cc1ccccc1)Cc1ccccc1` (configuration not stated), for which the IC90 is 3.74 µM. Further, the IC50 (HEPG2TOX_HILL_SLOPE 2.54, HEPG2TOX_R_SQUARED 0.989, PBLUC_HILL_SLOPE 16.4, PBLUC_R_SQUARED 0.588, read-out: LUCIFERASE INFECTION ASSAY - IC50) worked out at 3.27 µM.

For the molecule `COC(=O)c1c(C)[nH]c(-c2nc(NCc3ccc(C)cc3)sc2C)c1C`, the IC90 stood at 8.74 µM. Also, the IC50 (HEPG2TOX_HILL_SLOPE 1.4, HEPG2TOX_R_SQUARED 0.957, PBLUC_HILL_SLOPE 3.81, PBLUC_R_SQUARED 0.59, read-out: LUCIFERASE INFECTION ASSAY - IC50) is 4.91 µM.
